Laboratory results: patent US12006302B2, “Tau PET imaging ligands” (Janssen Pharmaceutica NV, priority 2016, dated 2024)

How the values were obtained:
[1] = biological target: extracted human tau aggregates (Homo sapiens, UniProt P10636); experiment: competitive radioligand binding assay, [3H]-T808 displacement
Method: Briefly, frozen human AD brain samples (˜10 g) were homogenized with 10 vol of cold homogenization buffer (10 mM Tris, 800 mM NaCl, 1 mM EGTA, 10% sucrose, pH 7.4 containing PhosSTOP phosphatase and cOmplete EDTA-free protease inhibitor (Roche, Vilvoorde, Belgium)) on ice. After centrifugation at 27 000×g for 20 min at 4° C. the supernatant was recovered and 1% (w/v) N-lauroylsarcosine and 1% (v/v) 2-mercaptoethanol were added. The N-lauroylsarcosine/2-mercaptoethanol supernatant was incubated for 2 h at 37° C. while shaking on an orbital shaker. Subsequently, ultracentrifugation at 108 000×g for 1.5 h at room temperature enriched aggregated tau in the pellet. Supernatant was removed and the pellet was carefully rinsed twice with a small amount of TBS (50 mM Tris, 150 mM NaCl, pH 7.4). […]
Briefly, aggregated tau preps were diluted to 100 μg protein/mi in PBS buffer with 5% ethanol. […] After overnight drying of the filter plate, Microscint O liquid (Perkin Elmer) was added and the amount of radiolabeled ligand bound to the fibrils is measured by liquid scintillation counting in a Topcount instrument (Packard Instrument Company, Connecticut, USA).
(§1) Values for half-maximal inhibitory concentration (IC50) were determined from displacement curves of at least two independent experiments using GraphPad Prism software (GraphPad Software, San Diego, CA).

[2] = biological target: T1, extracted human amyloid-beta aggregates (Homo sapiens, UniProt P05067); experiment: competitive radioligand binding assay, [3H]-AV-45 displacement
T1 construct: amyloid plaques which form by aggregation of beta-amyloid peptide; from tissue; host or cells: human AD brain, occipital cortex with high amyloid plaque load
T1 sequence (P05067 672-713 limits assumed): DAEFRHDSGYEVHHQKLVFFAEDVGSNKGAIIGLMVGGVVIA
Method: Enriched aggregated β-amyloid preps were prepared from frozen human AD brain samples (10 g—occipital cortex with high amyloid plaques load) that were homogenized with 7-fold vol of cold homogenization buffer (250 mM sucrose, 20 mM Tris base, 1 mM EDTA, 1 mM EGTA and PhosSTOP phosphatase and cOmplete EDTA-free protease inhibitor) on ice. After centrifugation at 27 000×g for 20 min at 4° C. cell debris was removed. Supernatant containing amyloid plaques was aliquoted and stored at −80° C.
The competitive radioligand binding assays measure the binding of a radiolabeled reference ligand in the presence of a dose response concentration range of test compounds.
as §1
To determine compound binding to aggregated β-amyloid a similar assay was put in place but with some minor modifications. […] Nonspecific binding was determined in the presence of 500 μM Thioflavin T. After 150 min incubation at room temperature, the binding mixtures were filtered over GF/B glass filters. […]

[3] = system: NFTs / cortical tau-rich regions; experiment: digital autoradiography with [18F]Co. No. 1 on human AD visual cortex slices, with blocking; assay type: binding; settings: for inhibition of [18F]Co. No. 1 binding: blocker 1 μM, human AD visual cortex slices
Method: Adjacent slices were immunostained for tau pathology (B, AT8) and for amyloid beta pathology (C, 4G8).
a) Air-dried frozen, 10-μm-thick slices of the visual cortex of an AD-patient (with Braak stage V-VI) were incubated for 60 min with [^18F]Co. No. 1 (7.4 kBq/500 μL per slice) and subsequently washed with mixtures of PBS and ethanol as described elsewhere (Xia C. F., Arteaga J., Chen G., et al. Alzheimer's Dement. 2013, 1-11). To assess specificity of binding, slices were incubated with tracer in the presence of 1 μM of authentic T808 or Co. No. 1. After drying, slices were exposed to a phosphor storage screen (super-resolution screen, Perkin Elmer). Screens were read in a Cyclone Plus system (Perkin Elmer, Waltham, MA, U.S.A.) and analyzed using Optiquant software. Results are expressed as digital light units per square mm (DLU/mm^2). Adjacent AD slices were immunostained with anti-tau (AT8) and anti-Aβ antibodies (4G8), to correlate with [^18F]Co. No. 1 binding.

[4] = system: MAO; experiment: in vitro binding of tritiated tracers to MAO-rich human tissue (striatum); settings: cold compound 10 μM; 10 nM [3H]-THK-5351
Method: The tracer was tested at 10 nM and higher concentrations were not investigated in this study.
In comparison, the tau tracer [^3H]-THK-5351 and the Aβ tracer [^3H]-AV-45 were used as THK-5351 is known to also bind MAO.

[5] = system: tau pathology in human AD slices; experiment: [18F]Co. No. 1 binding to human AD tissue in the presence of MAO binders; settings: 0.2 mCi/mL tracer; for effect on [18F]Co. No. 1 binding pattern in human AD slices: compound 10 μM
Method: c) Binding of [^18F] Co. No. 1 to human AD tissue was assessed in the presence of reported MAO binders. […] This binding pattern was maintained when the sample was incubated with 10 μM of clorgiline, a strong irreversible MAO binder with moderate selectivity for the A-subtype (FIG. 7B), or 10 μM selegiline (=deprenyl), a strong irreversible MAO-B binder (FIG. 7C). The binding of [^18F] […] Adjacent AD slices were immunostained with anti-tau (AT8) and anti-Aβ (4G8) antibodies to correlate with [^18F]Co. No. 1 binding (FIG. 8).

[6] = biological target: aggregated tau (Homo sapiens, UniProt P10636); settings: literature; cited from earlier work
aggregated tau, sequence (P10636 1-441 isoform P10636-8): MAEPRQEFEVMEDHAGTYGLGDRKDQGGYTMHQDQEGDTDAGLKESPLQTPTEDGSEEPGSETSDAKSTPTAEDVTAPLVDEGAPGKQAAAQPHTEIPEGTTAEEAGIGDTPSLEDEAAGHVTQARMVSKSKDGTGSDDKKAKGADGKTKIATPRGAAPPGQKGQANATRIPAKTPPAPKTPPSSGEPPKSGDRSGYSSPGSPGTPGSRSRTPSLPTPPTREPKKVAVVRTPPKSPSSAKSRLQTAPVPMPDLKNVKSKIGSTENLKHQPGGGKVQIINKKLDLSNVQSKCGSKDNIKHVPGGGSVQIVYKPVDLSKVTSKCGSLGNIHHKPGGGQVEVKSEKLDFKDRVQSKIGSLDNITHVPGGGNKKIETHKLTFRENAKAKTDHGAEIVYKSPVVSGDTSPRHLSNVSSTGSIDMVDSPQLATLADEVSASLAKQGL

[7] = microPET imaging, Wistar rats; assay type: in vivo, Wistar rat; settings: for SUV value at 60 min p.i. (brain wash-out) / initial brain uptake, high intensity SUV value in the brain: baseline scan, whole brain; for initial brain uptake, high intensity SUV value in the brain: IV about 50 MBq; for effect of pre-treatment / chase with cold compound on brain uptake: pre-treatment 10 mg/kg SC 60 min before, chase 1 mg/kg IV 30 min after tracer
Method: Three separate studies are shown: a baseline scan (only tracer), a pre-treatment experiment (cold Co. No. 1 or T807, 10 mg/kg injected subcutaneously 60 min prior to radiotracer injection), and a chase study (cold Co. No. 1 or T807, 1 mg/kg injected intravenously 30 min after radiotracer injection).
A dynamic 120-min μPET scan with [^18F]Co. No. 1 or [^18F]T807 was acquired on a Focus 220 μPET scanner (Concorde Microsystems, Knoxville, TN, U.S.A.) on three female Wistar rats simultaneously. The rats were kept under gas anaesthesia during the whole procedure (2.5% isoflurane in O2 at 1 L/min flow rate). Scans were acquired in list mode and acquisition data were Fourier rebinned in 24 time frames (4×15 s, 4×60 s, 5×180 s, 8×300 s, 3×600 s). Data, which were 3D maximum a posteriori (3D-MAP) reconstructed, were manually aligned with a rat brain ^18F-FDG template in Paxinos coordinates using an affine transformation, to allow predefined volumes of interest (VOIs) analysis (Casteels C., et al. J. Nucl. Med. 2006, 47, 1858-1866). Time-activity curves (TACs) of the whole brain were generated using VOIs with PMOD software (v 3.2, PMOD Technologies, Zürich, Switzerland). Radioactivity concentration in the brain was expressed as standardized uptake value (SUV, calculated as (radioactivity in Bq in brain/mL)/(total injected dose (Bq)/body weight in g)) as a function of time after tracer injection. Scans were started immediately after IV injection of about 50 MBq radiotracer (n=3/tracer). For pre-treatment and displacement studies, cold reference compound Co. No. 1 or T807 was dissolved in a mixture of 5% DMSO, 5% Tween 80 and 40% (2-hydroxypropyl)-β-cyclodextrin, filtered through a 0.22-μm membrane filter (Millex-GV. Millipore) prior to injection. Pre-treatment (n=1) was done by subcutaneous (SC) injection of 10 mg/kg of Co. No. 1 or T807, 60 min prior to radiotracer injection. Displacement (n=1) was performed by IV injection of 1 mg/kg Co. No. 1 or T807 30 min after radiotracer injection. μPET images were compared to a baseline scan (n=1), acquired in a non-treated rat.

[8] = microPET imaging, rhesus monkey; assay type: in vivo, rhesus monkey (Macaca mulatta); settings: baseline scan; for initial brain uptake, SUV value: total brain, IV 185 MBq
Method: A dynamic 120-min μPET scan with [^18F]Co. No. 1 or [^18F]T807 was performed with a Focus 220 μPET scanner on a rhesus monkey (6 y-old male Macaca mulatta, 7.6 kg), that was sedated with ketamine (Ketalar®) and xylazine (Rompun®) via intramuscular (IM) injection. During scanning the monkey received repeatedly an additional dose of ketamine/xylazine via IV injection. O2 saturation in blood, breathing frequency and heartbeat frequency were monitored during the entire experiment. The head of the animal was placed central in the field of view of the μPET scanner. Scans were acquired in list mode and Fourier rebinned in 24 time frames (4×15 s, 4×60 s, 5×180 s, 8×300 s, 3×600 s). Data were reconstructed using a 3D maximum a posteriori (3D-MAP) iterative reconstruction. TACs of the whole brain were generated using VOIs with PMOD software. Radioactivity concentration in the brain is expressed as SUV as a function of time after tracer injection. Scans were started immediately after IV injection of 185 MBq of [^18F]Co. No. 1 or [^18F]T807 via the vena saphena of the right leg. For the pre-treatment study, cold reference compound Co. No. 1 was dissolved in a mixture of 10% DMSO and 40% (2-hydroxypropyl)-o-cyclodextrin, filtered through a 0.22-μm membrane filter (Millex-GV, Millipore) prior to injection. Pre-treatment (n=1) was done by IV co-injection of 1 mg/kg of cold Co. No. 1 and radiotracer solution. μPET images were compared to a baseline scan (n=1), acquired in the non-treated monkey.

extracted human tau aggregates, sequence (P10636 623-695 limits assumed): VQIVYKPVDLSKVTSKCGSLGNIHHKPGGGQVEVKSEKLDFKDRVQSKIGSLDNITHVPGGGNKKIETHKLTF

SMILES: Cl.FCCCOc1ccc(Nc2ccc3cnccc3c2)nc1
- melting point: 249.3 °C

SMILES: Cl.FCCCNc1ccc(Nc2ccc3cnccc3c2)nc1
- melting point: 285.1 °C

SMILES: Cc1cnc(Nc2ccc3cnccc3c2)cc1F [Co. No. 1]
- IC50 ([1]; displacement of [3H]-T808 (10 nM), read-out: pIC50, binding to extracted human tau aggregates (converted)): 5.75 nM
- Ki ([1]; displacement of [3H]-T808, read-out: Ki corresponding to pIC50, extracted human tau (converted)): 2.4 nM
- IC50 ([2]; displacement of [3H]-AV-45 (10 nM), read-out: pIC50, binding to extracted human amyloid-beta aggregates (converted)): 6.61 µM
- Ki ([2]; displacement of [3H]-AV-45, read-out: Ki corresponding to pIC50, extracted human amyloid-beta aggregates (converted)): 3.2 µM
- inhibition of [18F]Co. No. 1 binding [3]: 99%
- blocking of [3H]-THK-5351 binding to MAO-rich human tissue [4]: blocked
- effect on [18F]Co. No. 1 binding pattern in human AD slices [5]: entirely blocked
- melting point: 182.53 °C

SMILES: Cc1ccc(Nc2ccc3cnccc3c2)nc1F [Co. No. 2]
- melting point: 203.3 °C

SMILES: FCCc1ccc(Nc2ccc3cnccc3c2)nc1 [Co. No. 3]
- melting point: 208.5 °C

SMILES: FCOc1ccc(Nc2ccc3cnccc3c2)nc1 [Co. No. 4]
- melting point: 173.1 °C

SMILES: FCCNc1ccc(Nc2ccc3cnccc3c2)nc1 [Co. No. 5]
- melting point: 191.4 °C

SMILES: CN(CCF)c1ccc(Nc2ccc3cnccc3c2)nc1 [Co. No. 6]
- melting point: 146.3 °C

SMILES: FCCOc1ccc(Nc2ccc3cnccc3c2)nc1 [Co. No. 9]
- melting point: 104.6 °C

SMILES: FCCC1CCN(c2ccn3c(n2)nc2ccccc23)CC1 [T808]
- inhibition of [18F]Co. No. 1 binding [3]: 99%
- Kd [6]: 22 nM
- selectivity for tau over Aβ aggregates [6]: 27 fold

SMILES: CNc1ccc(-c2ccc3cc(OC[C@H](O)CF)ccc3n2)cn1 [THK-5351, reference compound]
- blocking of [3H]-THK-5351 binding to MAO-rich human tissue [4]: self-blocked

SMILES: Cc1cnc(Nc2ccc3cnccc3c2)cc1[18F] [[^18F]Co. No. 1]
- tracer binding in digital autoradiography ([3]; 7.4 kBq/500 μL per slice, human AD slices): high and selective binding to cortical tau-rich regions
- tracer binding to tau pathology in human AD slices [5]: strong binding
- SUV value at 60 min p.i. (brain wash-out) [7]: 0.2
- initial brain uptake, high intensity SUV value in the brain [7]: ~2.0
- effect of pre-treatment / chase with cold compound on brain uptake [7]: No self-blocking or self-chase effect
- brain wash-out [8]: rapid wash-out
- distribution over brain regions [8]: homogeneous distribution
- initial brain uptake, SUV value [8]: ~5.4

SMILES: [18F]c1ccc(-c2ccc3c(c2)[nH]c2ccncc23)cn1 [[^18F]T807, reference compound]
- SUV value at 60 min p.i. (brain wash-out) [7]: 0.4
- initial brain uptake, high intensity SUV value in the brain [7]: ~1.8
- effect of pre-treatment / chase with cold compound on brain uptake [7]: Lower brain uptake during the baseline scan
- brain wash-out [8]: slower
- initial brain uptake, SUV value [8]: ~1.3

SMILES: C#CCN(C)CCCOc1ccc(Cl)cc1Cl [clorgiline, reference compound]
- effect on [18F]Co. No. 1 binding pattern in human AD slices [5]: maintained

SMILES: C#CCN(C)[C@H](C)Cc1ccccc1 [selegiline, reference compound]
- effect on [18F]Co. No. 1 binding pattern in human AD slices [5]: maintained
